This note sets out measurements from paper PMC4608362, “The therapeutic effect of chlorogenic acid against Staphylococcus aureus infection through sortase A inhibition” (Frontiers in Microbiology, 2015).

Molecules are shown by their SMILES.

Holding throughout (details): read-out: Binding constants KA (1 × 10^5) L⋅mol^-1 (converted)
Test [1] has as its target T1, Sortase A (SrtA) (Staphylococcus aureus, UniProt Q2FV99, C184A).
T1 construct: SrtAΔN59 (residues 60–206)
Description: fluorescence spectroscopy quenching with purified mutant, binding constant KA, n = […].

Test [2] has as its target T2, Sortase A (SrtA) (Staphylococcus aureus, UniProt Q2FV99, G192A).
T2 construct: SrtAΔN59 (residues 60–206)
The test is described as above.

The target of test [3] is T3, Sortase A (SrtA) (Staphylococcus aureus, UniProt Q2FV99).
T3 construct: SrtAΔN59 (residues 60–206)
Description: fluorescence spectroscopy quenching, binding constant KA, n = […]; also FRET inhibition of purified SrtAΔN59 (IC50 […]).

In the case of `O=C(/C=C/c1ccc(O)c(O)c1)O[C@@H]1C[C@](O)(C(=O)O)C[C@@H](O)[C@H]1O` [CHA, chlorogenic acid], the figures for the Kd on Sortase A (SrtA) [1], on Sortase A (SrtA) [2] and on Sortase A (SrtA) [3] were 2.13 µM, 2 µM and 1.12 µM, respectively.
